Test results: patent US9657351B2, “MRNA-based gene expression for personalizing patient cancer therapy with an MDM2 antagonist” (Hoffmann-La Roche Inc., priority 2013, dated 2017)
pIC50: −log10 of the molar value.

Columns and labels:
Assay in all cases: COMPOUND A In Vitro Assay
Format in all cases: cell-based
HT-1376 = settings: Homo sapiens, Urinary, bladder, TP53 Mutant
How it was run: (§1)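 Cell lines from a broad panel of human tumour types were treated with the MDM2 antagonist RG7112 in high-throughput screens to derive IC50 values. Lines with IC50<=1 were called sensitive, and those with IC50>=10 resistant.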

Kasumi-1 = settings: Homo sapiens, Lymphocyte, peripheral blood, TP53 Mutant
How it was run: as §1

A549 = settings: Homo sapiens
How it was run: as §1

COLO 201 = settings: Homo sapiens, Intestine, large, colon, TP53 Mutant
How it was run: as §1

NCI-H2081 = settings: Homo sapiens, Lung, TP53 Wild type
How it was run: as §1

LS513 = settings: Homo sapiens
How it was run: as §1

PC-3 = settings: Homo sapiens, Prostate, TP53 Mutant
How it was run: as §1

NCI-H69 = settings: Homo sapiens, Lung, TP53 Mutant
How it was run: as §1

DLD-1 = settings: Homo sapiens, Intestine, large, colon, TP53 Mutant
How it was run: as §1

KELLY = settings: Homo sapiens, Brain, TP53 Mutant
How it was run: as §1

CFPAC-1 = settings: Homo sapiens, Pancreas, TP53 Mutant
How it was run: as §1

UM-UC-3 = settings: Homo sapiens, UMUC3, Urinary, bladder, TP53 Mutant
How it was run: as §1

NCI-N87 = settings: Homo sapiens, Stomach, TP53 Mutant
How it was run: as §1

KG-1 = settings: Homo sapiens, Bone marrow, TP53 Mutant
How it was run: as §1

LP-1 = settings: Homo sapiens, Lymphocyte, peripheral blood, TP53 Mutant
How it was run: as §1

COLO-704 = settings: Homo sapiens, Ovary, TP53 Wild type
How it was run: as §1

KYSE-150 = settings: Homo sapiens, Esophagus, TP53 Mutant
How it was run: as §1

ABC-1 = settings: Homo sapiens, Lung, TP53 Mutant
How it was run: as §1

SK-N-SH = settings: Homo sapiens
How it was run: as §1

BT-483 = settings: Homo sapiens, Breast, mammary gland, TP53 Mutant
How it was run: as §1

MDA-MB-435S = settings: Homo sapiens, Skin, TP53 Mutant
How it was run: as §1

U-937 = settings: Homo sapiens, Pleura, TP53 Mutant
How it was run: as §1

HeLa S3 = settings: Homo sapiens, Cervix, TP53 Mutant
How it was run: as §1

TT = settings: Homo sapiens, Thyroid gland, TP53 Wild type
How it was run: as §1

NCI-H1944 = settings: Homo sapiens, Lung, TP53 Wild type
How it was run: as §1

NCI-H460 = settings: Homo sapiens
How it was run: as §1

EFO-21 = settings: Homo sapiens, Ovary, TP53 Mutant
How it was run: as §1

HPAC = settings: Homo sapiens, Pancreas, TP53 Mutant
How it was run: as §1

SUM-44PE = settings: Homo sapiens, Breast, TP53 Wild type
How it was run: as §1

HCC366 = settings: Homo sapiens, Lung, TP53 Mutant
How it was run: as §1

HT-29 = settings: Homo sapiens, Intestine, large, colon, TP53 Mutant
How it was run: as §1

NCI-H526 = settings: Homo sapiens, Lung, TP53 Mutant
How it was run: as §1

HARA = settings: Homo sapiens, Lung, TP53 Mutant
How it was run: as §1

Capan-2 = settings: Homo sapiens, Pancreas, TP53 Mutant
How it was run: as §1

NCI-H1781 = settings: Homo sapiens, Lung, TP53 Mutant
How it was run: as §1

SW948 = settings: Homo sapiens, Intestine, large, colon, TP53 Mutant
How it was run: as §1

HCC827 = settings: Homo sapiens, Lung, TP53 Mutant
How it was run: as §1

JIMT-1 = settings: Homo sapiens, Breast, TP53 Mutant
How it was run: as §1

CCOc1cc(C(C)(C)C)ccc1C1=N[C@@](C)(c2ccc(Cl)cc2)[C@@](C)(c2ccc(Cl)cc2)N1C(=O)N1CCN(CCCS(C)(=O)=O)CC1 [COMPOUND A]
pIC50 (HT-1376): 4.80
pIC50 (Kasumi-1): 4.68
pIC50 (A549; A549, A549, Lung, TP53 Wild type): 6.07
pIC50 (A549; A549, A549 cells): 6.05
pIC50 (COLO 201): 5.00
pIC50 (NCI-H2081): 4.77
pIC50 (LS513; LS-513, LS513, Intestine, large, caecum, TP53 Wild type): 6.31
pIC50 (LS513; LS-513, LS513 cells): 6.30
pIC50 (PC-3): 5.05
pIC50 (NCI-H69): 4.82
pIC50 (DLD-1): 5.29
pIC50 (KELLY): 4.82
pIC50 (CFPAC-1): 5.24
pIC50 (UM-UC-3): 4.82
pIC50 (NCI-N87): 4.92
pIC50 (KG-1): 4.82
pIC50 (LP-1): 5.36
pIC50 (COLO-704): 4.70
pIC50 (KYSE-150): 5.52
pIC50 (ABC-1): 5.00
pIC50 (SK-N-SH; Brain, TP53 Wild type): 6.68
pIC50 (SK-N-SH; SK-N-SH cells): 6.70
pIC50 (BT-483): 4.70
pIC50 (MDA-MB-435S): 4.92
pIC50 (U-937): 5.28
pIC50 (HeLa S3): 4.70
pIC50 (TT): 5.70
pIC50 (NCI-H1944): 5.15
pIC50 (NCI-H460; NCI-H460, NCI-H460, Lung, TP53 Wild type): 6.06
pIC50 (NCI-H460; NCI-H460, NCI-H460 cells): 6.05
pIC50 (EFO-21): 4.51
pIC50 (HPAC): 5.34
pIC50 (SUM-44PE): 5.52
pIC50 (HCC366): 5.06
pIC50 (HT-29): 5.13
pIC50 (NCI-H526): 4.80
pIC50 (HARA): 4.72
pIC50 (Capan-2): 5.04
pIC50 (NCI-H1781): 5.06
pIC50 (SW948): 4.72
pIC50 (HCC827): 5.05
pIC50 (JIMT-1): 4.96
